{"source": "patent US5866775A", "about": "“Glyphosate-tolerant 5-enolpyruvyl-3-phosphoshikimate synthases” (Monsanto Company, priority 1990, dated 1999)", "biological_target": "T1, pMON8252 encoded petunia EPSPS variant, glycine (101) to alanine and alanine (192) to threonine (Petunia hybrida, UniProt P11043, A264T/G173A)", "T1 construct": "alanine 192 in the mature petunia EPSP synthase; made in house; host or cells: E. coli SR481 (aroA-)", "T1 sequence (P11043 73-516 G173A/A264T)": "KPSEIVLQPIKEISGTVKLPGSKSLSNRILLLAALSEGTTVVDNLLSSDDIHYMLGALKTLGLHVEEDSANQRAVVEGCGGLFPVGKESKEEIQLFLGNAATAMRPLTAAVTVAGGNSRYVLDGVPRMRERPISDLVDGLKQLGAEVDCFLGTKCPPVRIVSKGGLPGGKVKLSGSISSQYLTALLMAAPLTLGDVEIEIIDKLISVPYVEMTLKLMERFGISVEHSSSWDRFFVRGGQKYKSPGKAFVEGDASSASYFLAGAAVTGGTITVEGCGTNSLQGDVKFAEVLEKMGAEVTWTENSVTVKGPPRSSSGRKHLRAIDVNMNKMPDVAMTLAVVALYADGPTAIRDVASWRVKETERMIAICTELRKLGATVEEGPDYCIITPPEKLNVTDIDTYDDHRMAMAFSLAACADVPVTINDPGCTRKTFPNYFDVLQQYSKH", "experiment": "EPSP synthase kinetic constants (appKm PEP, appKi glyphosate)", "type": "biochemical", "settings": "extract of SR481 cells with pMON8252", "experimental": "The balance of the #742 preculture (~750 μl) was used to inoculate 2 ml of 2XYT medium containing 50 μg/ml carbenicillin and was shaken overnight at 37° C. to reach saturation. Plasmid DNA was isolated from an aliquot of the saturated culture using an alkaline lysis procedure. The plasmid was designated pMON8252. An aliquot of the pMON8252 plasmid was used to transform the E. coli host SR481 (described above) and reselected on MOPS medium containing 10 mM glyphosate and 50 μg/ml carbenicillin. A single glyphosate resistant colony of pMON8252 was picked off the selection plate and used to inoculate 3 ml of 2XY1 bacterial medium containing 50 μg/ml carbenicillin. The culture was then aerated on a rotating wheel at 37° C. until saturated and then used to inoculate a larger 250 ml culture. The large culture was grown to saturation by continuously shaking it overnight at 37° C. in a water bath. The bacterial cells were lysed and the extracts were assayed for EPSPS activity.\nSpecifically, the bacterial cell paste was washed twice with 0.9% saline, suspended in buffer (100 mM Tris-HCl, 5 mM benzamidine HCl) and passed twice through a French Pressure Cell at 1000 psi. The cell extract was separated from the cells by centrifuging at 15,000×gravity for 10 minutes at 5° C. It was desalted using Sephadex G-50 (Pharmacia, Piscataway, N.J.). The desalted extract was assayed for EPSP synthase activity as follows.\nKinetic constants (appKm PEP and appKi glyphosate) were determined for EPSP synthase as described below. Substrate kinetic parameters were determined at pH 7.9 in 50 mM HEPES (N-[2-hydroxyethyl]piperazine-N'-[2-ethanesulfonic acid]) buffer in the presence of 2 mM S3P and varying amounts of ^14 C-PEP (10 μM-400 μM), for 2.0 minutes at 25° C. Reactions were quenched with 100 mM NaAcetate in ethanol, pH 4.5, centrifuged and analyzed for product EPSP formation by HPLC with flow radioactivity detection. HPLC conditions were 0.35M KPi, pH 6.5, on a Synchropak AX100 column at 1.0 ml/minute."}
{"smiles": "C=C(OP(=O)(O)O)C(=O)O", "note": "[PEP, phosphoenolpyruvate]", "values": [{"measurement": "Km for PEP", "result": 54, "unit": "µM"}]}
